In PubChem BioAssay (NCI):
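How tested: cells in 96-well plates exposed to compound for 48 hours at five concentrations. TGI: total growth inhibition.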

Tests used:
Test in all cases: growth of human tumour cells (NCI), 48 h
CCRF-CEM leukemia = system: CCRF-CEM leukemia
COLO 205 colon = system: COLO 205 colon
HCT-116 colon = system: HCT-116 colon
HCT-15 colon = system: HCT-15 colon
HL-60(TB) leukemia = system: HL-60(TB) leukemia
HOP-62 NSCLC = system: HOP-62 NSCLC
HOP-92 NSCLC = system: HOP-92 NSCLC
IGROV1 ovarian = system: IGROV1 ovarian
MALME-3M melanoma = system: MALME-3M melanoma
MCF7 breast = system: MCF7 breast
MOLT-4 leukemia = system: MOLT-4 leukemia
NCI-H460 lung = system: NCI-H460 lung
RPMI-8226 leukemia = system: RPMI-8226 leukemia
SF-539 CNS = system: SF-539 CNS
SK-OV-3 ovarian = system: SK-OV-3 ovarian
SN12C renal = system: SN12C renal
SNB-19 CNS = system: SNB-19 CNS
SW-620 colon = system: SW-620 colon
U251 CNS = system: U251 CNS
UACC-62 melanoma = system: UACC-62 melanoma

| Compound | TGI (CCRF-CEM leukemia) [µM] | TGI (COLO 205 colon) [µM] | TGI (HCT-116 colon) [µM] | TGI (HCT-15 colon) [µM] | TGI (HL-60(TB) leukemia) [µM] | TGI (HOP-62 NSCLC) [µM] | TGI (HOP-92 NSCLC) [µM] | TGI (IGROV1 ovarian) [µM] | TGI (MALME-3M melanoma) [µM] | TGI (MCF7 breast) [µM] | TGI (MOLT-4 leukemia) [µM] | TGI (NCI-H460 lung) [µM] | TGI (RPMI-8226 leukemia) [µM] | TGI (SF-539 CNS) [µM] | TGI (SK-OV-3 ovarian) [µM] | TGI (SN12C renal) [µM] | TGI (SNB-19 CNS) [µM] | TGI (SW-620 colon) [µM] | TGI (U251 CNS) [µM] | TGI (UACC-62 melanoma) [µM] |
| --- | --- | --- | --- | --- | --- | --- | --- | --- | --- | --- | --- | --- | --- | --- | --- | --- | --- | --- | --- | --- |
| CCCN1C(=O)/C(=C(/O)C(=O)OCC)C(c2ccc(OC)c(OC)c2)C1=O (stereo not given) | > 100 | > 100 | > 100 | > 100 | > 100 | > 100 | > 100 | > 100 | > 100 | > 100 | > 100 | > 31.6 | > 100 | > 100 | > 100 | > 100 | > 100 | > 100 | > 100 | > 100 |
| Cc1[nH]c(=O)[nH]c(=O)c1C(=O)N(CCO)Cc1ccccc1 | > 100 | 45.7 | > 100 | > 100 | > 100 | > 100 | > 100 | > 100 | > 100 | > 100 | > 100 | > 100 | > 100 | > 100 | > 100 | > 100 | > 100 | > 100 | > 100 | > 100 |
